Experimental data published in patent US9914958B2, “Nucleic acid-based linkers for detecting and measuring interactions” (President and Fellows of Harvard College, priority 2011, dated 2018).

Molecular target: streptavidin (Streptomyces avidinii, UniProt P22629)
Test: DNA nanoswitch gel electrophoresis assay of biotin-streptavidin dissociation kinetics
Type: binding
Conditions: for dissociation time: 150 mM salt, multiplied by two to represent a single biotin-streptavidin interaction
Source text: Linkers were designed according to protocols for long (2580 bp) and short (600 bp) loops as described herein. […] All other oligos were the same as those used previously. Briefly, looped constructs were made by mixing a long single-stranded DNA (M13mp18, in this case) with over 121 oligos that are complementary along its length. […] The constructs come together by self-assembly with a temperature ramp heating and cooling them.
Recognizing that the nanoswitch conformation informs the receptor-ligand binding state (bound or unbound), and that the conformation can be observed on a gel, an assay to measure bulk interaction kinetics was developed. The assay, conceptually shown in FIG. 7, proceeds as follows: 1) form a looped nucleic acid (DNA) construct that relies on a receptor and a ligand being bound to each other, 2) quench the interaction between the receptor and the ligand, for example, with excess receptor or ligand to prevent rebinding following dissociation, 3) monitor the relative amount of looped construct over time to measure kinetics.
Linear double-stranded DNA constructs 7249 base pairs (bp) in length were self-assembled by combining the single-stranded M13 bacteriophage genome with 121 complementary oligos. (See also Halvorsen K et al., 2011). Two of the oligos were labeled with single biotins and placed 2580 bp from each other, such that interaction with streptavidin induced the formation of a 2580 bp loop in the structure. […] The entire array of 16 conditions with five time points each plus controls was then run on a single 96 lane agarose gel (FIG. 8).
To determine the biotin-streptavidin dissociation kinetics, an image of the gel was analyzed using publicly available software (ImageJ). The gel analysis tool in ImageJ was used to measure the integrated intensity of the band containing looped construct, and this quantity was normalized by the integrated intensity of a reference band in the same lane from a DNA ladder, which was added to the construct prior to starting experiments. Individual time constants for each experimental condition were determined by fitting a single exponential decay to the data using an error weighted least squares fitting.

Chain of streptavidin (P22629 25-183, species assumed): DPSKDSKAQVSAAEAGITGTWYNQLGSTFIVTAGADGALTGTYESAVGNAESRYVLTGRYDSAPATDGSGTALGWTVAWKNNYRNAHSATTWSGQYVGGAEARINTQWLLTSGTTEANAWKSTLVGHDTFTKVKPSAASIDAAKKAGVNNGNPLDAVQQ

O=C(O)CCCC[C@@H]1SC[C@@H]2NC(=O)N[C@@H]21 [biotin]
dissociation time (25° C.): 148 ± 10 h | dissociation time (37° C.): 11.2 ± 3 h | time constants, range over the conditions tested (16 conditions: four salts, four temperatures (4° C. to 50° C., 5 mM to 500 mM)): half of an hour to two months | time constants, range (FIG. 8 legend) (16 experimental conditions, FIG. 8 table): less than 1 hour to over 1000 hours | variation of off-rate with temperature (at a given salt concentration, from 4° C. to 50° C.): over 100 fold | change of off-rate with salt (at a given temperature, from 5 mM to 500 mM): less than 2 fold | fastest off-rate measured (as a time) (high temperature): 40 min
